Measurements as given in US7307077B2, “Heterocyclic compound and antitumor agent containing the same as effective ingredient” (Zenyaku Kogyo Kabushiki Kaisha, priority 2001, dated 2007).

Legend:
[1] = tested on: MCF-7 cells; experiment: Test 1: growth inhibition of MCF-7 human breast cancer cells; type: cell-based; details: Homo sapiens, MCF7, 72 hours culture with sample, read-out: GI50 (50% growth inhibition concentration)
Procedure: Used in the test were MCF-7 cells which were established from human breast cancer and were cultured routinely under the conditions of 37° C. and 5% CO2, in MEM medium supplemented with 10% fetal calf serum, 25 mM of HEPES and 0.1 mg/ml of kanamycin. The MCF-7 cells in a logarithmic growth phase were treated with trypsin/EDTA to prepare single cell suspension adjusted to 4.0×10^4 cells/ml in MEM medium (supplemented with 10% fetal calf serum, 25 mM of HEPES and 0.1 mg/ml of kanamycin). Test compounds were dissolved in DMSO and diluted with RPMI 1640 medium (supplemented with 10% fetal calf serum, 25 mM of HEPES and 0.1 mg/ml of kanamycin) to a concentration of 2.0×10^−4-2.0×10^−9 M.
The cell suspension was filled in a 96-wells microplate at a rate of 0.1 ml per well and was cultured for 24 hours so as to make the cells adhered to the microplate. Then, it was added with 0.1 ml of the sample solution and cultured at 37° C. for 72 hours in 5% CO2.
50% Growth inhibition concentrations (GI50 μM) were calculated from growth inhibitions at various sample concentrations.

[2] = tested on: Human colon cancer WiDr; experiment: Test 2: human colon cancer WiDr subcutaneous tumor in nude mice; type: in vivo, mutant BALA/c nude mice; details: intraperitoneally 200 mg/kg, once a day, six times a week, for two weeks
Procedure: Human colon cancer WiDr was grown as subcutaneous tumor in mutant BALA/c nude mice. 2-mm-cube tumor fragments were transplanted subcutaneously into left flank of the nude mice. When the tumor reached logarithmic growth phase, mice were divided randomly into test groups consisting five mice per group. The samples prepared by dissolving test compounds in physiological saline solution or suspending them in 1% hydroxypropyl cellulose (HPC), using an agate mortar, were intraperitoneally administered at a rate of 200 mg/kg, once a day and six times a week in total, for two weeks. Major and minor axes of the tumor mass were measured on a daily basis to calculate tumor volume. The tumor volume at each measured day was divided by that at the start day of the sample administration to calculate relative tumor growth rate; and the relative tumor growth rate of the treated groups (T) and that of the control group (C) were used to calculate T/C (%).

Row | GI50 [1] [µM] | melting point | Compound | judgment (T/C (%) of relative tumor growth rate, last day) [2]
1 | 0.23 | 243 to 245 °C | CC(=O)Nc1nc2ccccc2n1-c1nc(N2CCOCC2)nc(N2CCOCC2)n1 [compound 22, 2-(2-acetylaminobenzimidazol-1-yl)-4,6-dimorpholino-1,3,5-triazine] | + (Cases where T/C (%) of the last day was less than 50% and U-assay of Mann-Whitney revealed significant difference with one-sided risk rate of 1% were judged to be effective (+))
2 | 0.16 | 135 to 138 °C | C[C@@H]1OCCN(c2nc(N3CCOCC3)nc(-n3c(C(F)F)nc4ccccc43)n2)[C@H]1C (relative stereo) [compound 14, 2-(2-difluoromethylbenzimidazol-1-yl)-4-(trans-2,3-dimethylmorpholino)-6-morpholino-1,3,5-triazine] | + (Cases where T/C (%) of the last day was less than 50% and U-assay of Mann-Whitney revealed significant difference with one-sided risk rate of 1% were judged to be effective (+))
3 | 0.18 | 226 to 227 °C (dec.) | CC1(C)CN(c2nc(N3CCOCC3)nc(-n3c(C(F)F)nc4ccc(N)cc43)n2)CCO1 [compound 32, 2-(6-amino-2-difluoromethylbenzimidazol-1-yl)-4-(2,2-dimethylmorpholino)-6-morpholino-1,3,5-triazine] | + (Cases where T/C (%) of the last day was less than 50% and U-assay of Mann-Whitney revealed significant difference with one-sided risk rate of 1% were judged to be effective (+))
